Measured values published in the NIST ThermoML archive (doi:10.1016/j.fluid.2008.07.006).

Assays:
[1] = 101.33 kPa, Liquid
[2] = cn = amount concentration of the nth substance listed, in mol/dm3; conditions: 101 kPa, Liquid, Direct current cell with electrodes
[3] = xn = mol fraction of the nth substance listed; conditions: 101 kPa, Fluid (supercritical or subcritical phases)

CCn1cc[n+](C)c1.COCCOCCOS(=O)(=O)[O-] [1-ethyl-3-methylimidazolium 2-(2-methoxyethoxy) ethylsulfate]
[1]
Conditions	mass density [kg/m3]
303.2 K	1233.4
308.2 K	1230
313.2 K	1226.6
318.2 K	1223.3
323.2 K	1219.9

CCn1cc[n+](C)c1.COCCOCCOS(=O)(=O)[O-] [1-ethyl-3-methylimidazolium 2-(2-methoxyethoxy) ethylsulfate] + O
Conditions	binary diffusion coefficient, 303.2 K [m2/s]	binary diffusion coefficient, 308.2 K [m2/s]	binary diffusion coefficient, 313.2 K [m2/s]	binary diffusion coefficient, 318.2 K [m2/s]	binary diffusion coefficient, 323.2 K [m2/s]	molar conductivity, 303.2 K [S·m2/mol]	molar conductivity, 308.2 K [S·m2/mol]	molar conductivity, 313.2 K [S·m2/mol]	molar conductivity, 318.2 K [S·m2/mol]	molar conductivity, 323.2 K [S·m2/mol]
[2], c1 = 9e-10	–	–	–	–	–	0.0074	0.0081	0.009	0.0098	0.0107
[2], c1 = 3.9e-09	–	–	–	–	–	0.0067	0.0075	0.0082	0.0091	0.0097
[2], c1 = 1.06e-08	–	–	–	–	–	0.0062	0.007	0.0077	0.0084	0.0091
[2], c1 = 1.82e-08	–	–	–	–	–	0.006	0.0067	0.0074	0.0081	0.0088
[2], c1 = 2.57e-08	–	–	–	–	–	0.0059	0.0065	0.0072	0.0076	0.0083
[3], x2 = 0	9.95e-10	1.06e-09	1.27e-09	1.32e-09	1.51e-09	–	–	–	–	–

CCn1cc[n+](C)c1.N#CN=C=[N-] [1-ethyl-3-methylimidazolium dicyanamide]
[1]
Conditions	mass density [kg/m3]
303.2 K	1105.8
308.2 K	1102.6
313.2 K	1099.4
318.2 K	1096.2
323.2 K	1093

CCn1cc[n+](C)c1.N#CN=C=[N-] [1-ethyl-3-methylimidazolium dicyanamide] + O
Conditions	binary diffusion coefficient, 303.2 K [m2/s]	binary diffusion coefficient, 308.2 K [m2/s]	binary diffusion coefficient, 313.2 K [m2/s]	binary diffusion coefficient, 318.2 K [m2/s]	binary diffusion coefficient, 323.2 K [m2/s]	molar conductivity, 303.2 K [S·m2/mol]	molar conductivity, 308.2 K [S·m2/mol]	molar conductivity, 313.2 K [S·m2/mol]	molar conductivity, 318.2 K [S·m2/mol]	molar conductivity, 323.2 K [S·m2/mol]
[2], c1 = 1.2e-09	–	–	–	–	–	0.0095	0.0103	0.011	0.0123	0.0133
[2], c1 = 6.6e-09	–	–	–	–	–	0.009	0.0098	0.0108	0.0118	0.0128
[2], c1 = 1.19e-08	–	–	–	–	–	0.0087	0.0095	0.0105	0.0113	0.0125
[2], c1 = 2.28e-08	–	–	–	–	–	0.0083	0.0092	0.01	0.0109	0.0119
[2], c1 = 4.15e-08	–	–	–	–	–	0.0079	0.0088	0.0095	0.0103	0.0114
[3], x1 = 0	1.25e-09	1.41e-09	1.54e-09	1.71e-09	1.85e-09	–	–	–	–	–

CCOS(=O)(=O)[O-].CCn1cc[n+](C)c1 [1-ethyl-3-methylimidazolium ethyl sulfate]
[1]
Conditions	mass density [kg/m3]
303.2 K	1232.7
308.2 K	1229.4
313.2 K	1226.2
318.2 K	1222.9
323.2 K	1219.7

CCOS(=O)(=O)[O-].CCn1cc[n+](C)c1 [1-ethyl-3-methylimidazolium ethyl sulfate] + O
Conditions	binary diffusion coefficient, 303.2 K [m2/s]	binary diffusion coefficient, 308.2 K [m2/s]	binary diffusion coefficient, 313.2 K [m2/s]	binary diffusion coefficient, 318.2 K [m2/s]	binary diffusion coefficient, 323.2 K [m2/s]	molar conductivity, 303.2 K [S·m2/mol]	molar conductivity, 308.2 K [S·m2/mol]	molar conductivity, 313.2 K [S·m2/mol]	molar conductivity, 318.2 K [S·m2/mol]	molar conductivity, 323.2 K [S·m2/mol]
[2], c1 = 1.6e-09	–	–	–	–	–	0.008	0.0089	0.0097	0.0106	0.0116
[2], c1 = 4.6e-09	–	–	–	–	–	0.0076	0.0084	0.0092	0.0101	0.011
[2], c1 = 8.6e-09	–	–	–	–	–	0.0074	0.0081	0.0089	0.0097	0.0106
[2], c1 = 1.72e-08	–	–	–	–	–	0.0071	0.0079	0.0086	0.0095	0.0102
[2], c1 = 3.58e-08	–	–	–	–	–	0.0065	0.0073	0.0082	0.0091	0.0098
[3], x1 = 0	1.04e-09	1.19e-09	1.4e-09	1.5e-09	1.64e-09	–	–	–	–	–

CCn1cc[n+](C)c1.F[B-](F)(F)F [1-ethyl-3-methylimidazolium tetrafluoroborate]
[1]
Conditions	mass density [kg/m3]
303.2 K	1278.7
308.2 K	1275
313.2 K	1271.4
318.2 K	1267.8
323.2 K	1264.2

CCn1cc[n+](C)c1.F[B-](F)(F)F [1-ethyl-3-methylimidazolium tetrafluoroborate] + O
Conditions	binary diffusion coefficient, 303.2 K [m2/s]	binary diffusion coefficient, 308.2 K [m2/s]	binary diffusion coefficient, 313.2 K [m2/s]	binary diffusion coefficient, 318.2 K [m2/s]	binary diffusion coefficient, 323.2 K [m2/s]	molar conductivity, 303.2 K [S·m2/mol]	molar conductivity, 308.2 K [S·m2/mol]	molar conductivity, 313.2 K [S·m2/mol]	molar conductivity, 318.2 K [S·m2/mol]	molar conductivity, 323.2 K [S·m2/mol]
[2], c1 = 1e-09	–	–	–	–	–	0.0119	0.013	0.0139	0.0149	0.0162
[2], c1 = 5.5e-09	–	–	–	–	–	0.0111	0.0121	0.0131	0.0142	0.0153
[2], c1 = 1.32e-08	–	–	–	–	–	0.0105	0.0116	0.0125	0.0136	0.0146
[2], c1 = 2.22e-08	–	–	–	–	–	0.0101	0.0111	0.012	0.013	0.014
[2], c1 = 4.15e-08	–	–	–	–	–	0.009	0.0099	0.0108	0.0117	0.0127
[3], x1 = 0	1.5e-09	1.57e-09	1.69e-09	1.88e-09	2.01e-09	–	–	–	–	–

CCn1cc[n+](C)c1.O=S(=O)([O-])C(F)(F)F [1-ethyl-3-methylimidazolium trifluoromethanesulfonate]
[1]
Conditions	mass density [kg/m3]
303.2 K	1377.3
308.2 K	1373.3
313.2 K	1369.3
318.2 K	1365.3
323.2 K	1361.2

CCn1cc[n+](C)c1.O=S(=O)([O-])C(F)(F)F [1-ethyl-3-methylimidazolium trifluoromethanesulfonate] + O
Conditions	binary diffusion coefficient, 303.2 K [m2/s]	binary diffusion coefficient, 308.2 K [m2/s]	binary diffusion coefficient, 313.2 K [m2/s]	binary diffusion coefficient, 318.2 K [m2/s]	binary diffusion coefficient, 323.2 K [m2/s]	molar conductivity, 303.2 K [S·m2/mol]	molar conductivity, 308.2 K [S·m2/mol]	molar conductivity, 313.2 K [S·m2/mol]	molar conductivity, 318.2 K [S·m2/mol]	molar conductivity, 323.2 K [S·m2/mol]
[2], c1 = 1.2e-09	–	–	–	–	–	0.0083	0.0093	0.0101	0.011	0.012
[2], c1 = 3.8e-09	–	–	–	–	–	0.0079	0.0088	0.0097	0.0106	0.0114
[2], c1 = 8.7e-09	–	–	–	–	–	0.0077	0.0085	0.0093	0.0102	0.0111
[2], c1 = 1.86e-08	–	–	–	–	–	0.0073	0.008	0.0088	0.0095	0.0103
[2], c1 = 3.19e-08	–	–	–	–	–	0.0069	0.0077	0.0084	0.0092	0.01
[3], x1 = 0	1.16e-09	1.27e-09	1.51e-09	1.66e-09	1.8e-09	–	–	–	–	–

F[B-](F)(F)F.[Li+] [lithium fluoroborate] + O
molar conductivity [S·m2/mol], [2]
Conditions	303.2 K	308.2 K	313.2 K	318.2 K	323.2 K
c1 = 3e-09	0.0117	0.0126	0.0134	0.0144	0.0158
c1 = 1.11e-08	0.0111	0.0122	0.0129	0.0139	0.0155
c1 = 2.73e-08	0.0106	0.0119	0.0125	0.0135	0.0152
c1 = 4.81e-08	0.0103	0.0115	0.0121	0.0131	0.0149
c1 = 7.55e-08	0.01	0.0112	0.0118	0.0127	0.0145
